In patent publication US20080214844A1, “Icaritin and desmethylicaritin as anti-cancer agents” (priority 2007, published 2008):

Legend:
[1] = tested on: G-361; test: MTT cell viability assay, G-361; format: cell-based, human; conditions: Homo sapiens, 72 h, G-361, Skin, 3 days culture
Method: (§1) 26 cancer cell lines were grown in normal growth medium in the presence of different concentrations Icaritin or Desmethylicaritin. After culture for 3 days, the cell viability was then measured by an MTT assay. […] Some EC50s were lower than 10 uM for these two compounds. […] Whereas, normal human mammary gland epithelial cells (MCF10A) were not sensitive to Icaritin and Desmethylicaritin. These cells grew well when treated with these two compounds at a concentration of 50 uM.

[2] = tested on: SKOV3; test: MTT cell viability assay, SKOV3; format: cell-based, human; conditions: Homo sapiens, SK-OV-3, 72 h, SKOV3, Ovary, 3 days culture
Method: as §1

[3] = tested on: Widr; test: MTT cell viability assay, Widr; format: cell-based, human; conditions: Homo sapiens, 72 h, Colon, 3 days culture
Method: as §1

[4] = tested on: PC3; test: MTT cell viability assay, PC3; format: cell-based, human; conditions: Homo sapiens, PC-3, 72 h, PC3, Prostate, 3 days culture
Method: as §1

[5] = tested on: Caki-1; test: MTT cell viability assay, Caki-1; format: cell-based, human; conditions: Homo sapiens, 72 h, Caki-1, Kidney, 3 days culture
Method: as §1

[6] = tested on: human micro vessel endothelial cell (HMVECs); test: HMVEC proliferation assay; format: cell-based
Method: Icaritin is a potent inhibitor of angiogenesis. Inhibition of human micro vessel endothelial cell (HMVECs) proliferation by Icaritin was investigated. HMVEC proliferation in response to Icaritin was determined using a modified method from previously described procedures. Briefly, HMVECs fed 1 day before use (with a fresh media exchange to obtain optimal growth conditions) were trypsinized and resuspended at 5×10^4 cells/ml in EBM (Clonetics)+2% FBS+gentamicin. An equivalent number of cells (2.5×10^3) in 50 μl cell suspension was plated nonconfluently onto each well of a 96-well plate and allowed to adhere for 4 h at 37° C. Serial Icaritin dilutions were prepared in this media at 3× concentration, of which 50 μl was added to the 100 μl cell suspension already in the wells, resulting in 150 μl 1× dilutions. The plate was incubated for up to 72 h at 37° C. […] Absorbance was read at 490 nm on an ELISA plate reader with Microplate Manager (Bio-Rad, Richmond, Calif.). Proliferation curves for HMVECs were determined, and measurements were obtained and compared in the log proliferation phase, which was 3 days (t=72 h) for the conditions described. […]

[7] = tested on: AU-565; test: MTT cell viability assay, AU-565; format: cell-based, human; conditions: Homo sapiens, AU565, 72 h, AU-565, Breast, 3 days culture
Method: as §1

[8] = tested on: HT29; test: MTT cell viability assay, HT29; format: cell-based, human; conditions: Homo sapiens, HT-29, 72 h, HT29, Colon, 3 days culture
Method: as §1

[9] = tested on: A549; test: MTT cell viability assay, A549; format: cell-based, human; conditions: Homo sapiens, 72 h, A549, Lung, 3 days culture
Method: as §1

[10] = tested on: estrogen receptor; conditions: mediated by the estrogen receptor; cited from earlier work
[11] = tested on: D145; test: MTT cell viability assay, D145; format: cell-based, human; conditions: Homo sapiens, 72 h, D145, Prostate, 3 days culture
Method: as §1

[12] = tested on: ACHN; test: MTT cell viability assay, ACHN; format: cell-based, human; conditions: Homo sapiens, 72 h, Kidney, 3 days culture
Method: as §1

[13] = tested on: BT-549; test: MTT cell viability assay, BT-549; format: cell-based, human; conditions: Homo sapiens, 72 h, BT-549, Breast, 3 days culture
Method: as §1

[14] = tested on: LNCAP; test: MTT cell viability assay, LNCAP; format: cell-based, human; conditions: Homo sapiens, 72 h, Prostate, 3 days culture
Method: as §1

[15] = tested on: LNCaP prostate cancer cells; test: Lipogenesis: incorporation of 2-14C-labeled acetate into cellular lipids; format: cell-based; conditions: Homo sapiens, 5 h, 2-14C-acetate incorporation
Method: To investigate the ability of Icaritin and Desmethylicaritin to inhibit lipogenesis, LNCaP prostate cancer cells were treated with different concentrations of Icaritin and Desmethylicaritin for 5 h, and incorporation of 2-^14C-labeled acetate into cellular lipids was quantitated. Both of Icaritin and Desmethylicaritin inhibited lipogenesis by more than 50% at a concentration of 0.5 uM. Higher concentrations further reduced lipogenesis in a dose-dependent way. A further decline was observed after 24 h of exposure.

COc1ccc(-c2oc3c(CC=C(C)C)c(O)cc(O)c3c(=O)c2O)cc1 [Icaritin]
IC50 [1]: 6.9 µM
IC50 [2]: 9.8 µM
IC50 [3]: 10.6 µM
IC50 [4]: 9.4 µM
IC50 [5]: 7 µM
inhibition of proliferation and inducing cell apoptosis ([6]; 10 uM, HUVECs and HMVECs): significant levels of inhibition
EC50 ([6]; Homo sapiens, HMVEC, 72 h, Cell Titer 96 Aqueous assay, read-out: EC50, inhibition of HMVEC proliferation): 8.7 µM
IC50 [7]: 7.9 µM
IC50 [8]: 15.3 µM
IC50 [9]: 10.6 µM
estrogenic effect [10]: week phytoestrogens
IC50 [11]: 9.3 µM
IC50 [12]: 9.5 µM
IC50 [13]: 8 µM
IC50 [14]: 5.3 µM
inhibition at 0.5 µM [15]: > 50%
